The species named for series [1] is Mus musculus. It is filed as functional. Particulars: at 2.5 mg/kg.
Description: Reversal of scopolamine-induced memory impairment in mice at 2.5 mg/Kg administered subcutaneously.
Series [2] is filed under the species Mus musculus. The series is classed as functional. Particulars: at […].
Description: Reversal of scopolamine-induced memory impairment in mice at 0.31 mg/Kg administered subcutaneously.
Series [3] is described as follows: in vivo. Particulars: rat, ip.
Description: Toxicity evaluated in rats after intraperitoneal administration.
For series [4], the target named is Sodium-dependent serotonin transporter (Rattus norvegicus, UniProt P31652). The series is classed as functional.
Description: Inhibition of serotonin reuptake in rat whole brains without cerebellum
The species entered for series [5] is Mus musculus. It is filed as functional. As to conditions: at 0.63 mg/kg.
Description: Reversal of scopolamine-induced memory impairment in mice at 0.63 mg/Kg administered subcutaneously.
Series [6] is filed under the species Mus musculus. It is filed as functional. As to conditions: at 1.25 mg/kg.
Description: Reversal of scopolamine-induced memory impairment in mice at 1.25 mg/Kg administered subcutaneously.
Series [7] deals with Sodium-dependent dopamine transporter (Rattus norvegicus, UniProt P23977). It is filed as functional.
Sequence of Sodium-dependent dopamine transporter (P23977 whole entry): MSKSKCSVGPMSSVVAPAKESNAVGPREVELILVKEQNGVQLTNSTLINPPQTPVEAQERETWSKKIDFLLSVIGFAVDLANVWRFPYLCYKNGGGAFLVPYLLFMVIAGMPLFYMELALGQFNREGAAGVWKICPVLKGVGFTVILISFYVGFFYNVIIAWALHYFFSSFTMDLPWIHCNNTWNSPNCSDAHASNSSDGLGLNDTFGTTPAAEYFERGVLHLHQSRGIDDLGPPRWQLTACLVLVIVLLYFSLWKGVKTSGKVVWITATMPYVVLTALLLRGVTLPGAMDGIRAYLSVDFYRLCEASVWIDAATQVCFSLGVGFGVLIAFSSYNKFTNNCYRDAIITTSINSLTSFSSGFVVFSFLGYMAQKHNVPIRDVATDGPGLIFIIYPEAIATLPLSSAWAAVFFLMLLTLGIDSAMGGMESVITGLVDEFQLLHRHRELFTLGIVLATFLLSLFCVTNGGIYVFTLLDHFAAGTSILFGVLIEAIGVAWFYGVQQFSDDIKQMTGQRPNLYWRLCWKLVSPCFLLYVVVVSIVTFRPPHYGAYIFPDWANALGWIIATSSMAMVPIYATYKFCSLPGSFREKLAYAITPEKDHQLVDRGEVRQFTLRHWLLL
Description: Inhibition of the reuptake of dopamine in rat corpora striata.
The target of series [8] is T1, Acetylcholinesterase (Rattus norvegicus, UniProt P37136).
T1 sequence (P37136 whole entry): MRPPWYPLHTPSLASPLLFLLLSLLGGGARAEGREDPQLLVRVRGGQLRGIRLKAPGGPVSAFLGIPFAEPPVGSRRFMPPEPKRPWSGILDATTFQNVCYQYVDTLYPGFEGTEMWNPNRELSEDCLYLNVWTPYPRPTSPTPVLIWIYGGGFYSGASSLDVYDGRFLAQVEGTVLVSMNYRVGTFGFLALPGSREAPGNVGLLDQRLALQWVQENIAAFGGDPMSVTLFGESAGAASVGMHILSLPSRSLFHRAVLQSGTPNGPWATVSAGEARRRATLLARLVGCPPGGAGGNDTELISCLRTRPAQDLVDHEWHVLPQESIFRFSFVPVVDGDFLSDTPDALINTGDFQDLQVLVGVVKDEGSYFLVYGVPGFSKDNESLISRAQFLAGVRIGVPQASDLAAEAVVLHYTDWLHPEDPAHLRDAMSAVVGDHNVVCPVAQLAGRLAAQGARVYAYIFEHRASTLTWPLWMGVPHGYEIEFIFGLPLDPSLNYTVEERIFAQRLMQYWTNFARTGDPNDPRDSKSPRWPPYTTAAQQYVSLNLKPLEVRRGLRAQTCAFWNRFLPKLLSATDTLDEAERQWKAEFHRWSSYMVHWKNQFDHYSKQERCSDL
Description: In vitro inhibition against acetylcholinesterase in rat striata.

The species entered for series [9] is Mus musculus. It is filed as functional. As to conditions: at 0.16 mg/kg.
Description: Reversal of scopolamine-induced memory impairment in mice at 0.16 mg/Kg administered subcutaneously.
Series [10] deals with Norepinephrine transporter (Rattus norvegicus, UniProt Q9WTR4).
Sequence of Norepinephrine transporter (Q9WTR4 whole entry): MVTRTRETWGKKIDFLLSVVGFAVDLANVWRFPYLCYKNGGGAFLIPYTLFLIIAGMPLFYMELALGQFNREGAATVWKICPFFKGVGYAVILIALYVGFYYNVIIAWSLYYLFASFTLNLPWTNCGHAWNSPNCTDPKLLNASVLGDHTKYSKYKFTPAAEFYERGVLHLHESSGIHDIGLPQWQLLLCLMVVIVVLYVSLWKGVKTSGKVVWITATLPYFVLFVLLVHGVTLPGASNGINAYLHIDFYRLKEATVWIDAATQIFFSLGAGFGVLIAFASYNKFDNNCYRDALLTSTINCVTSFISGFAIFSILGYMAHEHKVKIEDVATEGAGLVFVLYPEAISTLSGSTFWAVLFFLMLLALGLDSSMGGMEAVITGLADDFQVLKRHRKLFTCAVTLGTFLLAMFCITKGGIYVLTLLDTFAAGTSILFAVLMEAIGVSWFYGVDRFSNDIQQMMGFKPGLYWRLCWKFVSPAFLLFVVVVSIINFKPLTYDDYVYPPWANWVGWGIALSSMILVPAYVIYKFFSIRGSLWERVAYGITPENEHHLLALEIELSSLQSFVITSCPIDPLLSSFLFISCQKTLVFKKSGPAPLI
Description: Inhibition of norepinephrine reuptake in rat whole brains minus cerebellar
The species entered for series [11] is Mus musculus. It is filed as functional. Particulars: at 5 mg/kg.
Description: Reversal of scopolamine-induced memory impairment in mice at 5 mg/Kg administered subcutaneously.

SMILES strings stand for the structures.

Sequence of Sodium-dependent serotonin transporter (P31652 whole entry): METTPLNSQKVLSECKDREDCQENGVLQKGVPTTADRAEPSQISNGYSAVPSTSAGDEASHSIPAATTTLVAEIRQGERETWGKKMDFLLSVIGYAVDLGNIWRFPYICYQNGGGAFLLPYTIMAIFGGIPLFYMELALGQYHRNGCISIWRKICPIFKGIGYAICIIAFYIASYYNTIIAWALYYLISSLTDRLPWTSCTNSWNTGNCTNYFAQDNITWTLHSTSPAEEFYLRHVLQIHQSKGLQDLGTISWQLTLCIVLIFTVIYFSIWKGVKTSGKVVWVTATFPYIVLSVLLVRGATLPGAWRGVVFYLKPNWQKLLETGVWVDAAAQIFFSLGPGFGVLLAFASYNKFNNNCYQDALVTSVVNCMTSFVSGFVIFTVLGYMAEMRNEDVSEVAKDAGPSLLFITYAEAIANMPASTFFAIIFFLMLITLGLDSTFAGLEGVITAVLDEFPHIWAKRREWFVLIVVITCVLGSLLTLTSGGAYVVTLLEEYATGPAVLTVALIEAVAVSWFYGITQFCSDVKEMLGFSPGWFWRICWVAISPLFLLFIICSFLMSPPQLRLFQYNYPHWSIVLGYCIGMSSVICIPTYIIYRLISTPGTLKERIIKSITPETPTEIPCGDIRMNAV

What is called LD50 is the dose at which mortality reaches 50%. A low value points to a more toxic substance. What is called IC50 is the point on the concentration scale where inhibition reaches its midpoint. Higher therefore signals weaker potency in that assay. Regarding `COc1ccccc1CNc1c2c(nc3ccccc13)CCCC2O` (stereo unspecified), the Animals in series [1] is reported as 13%; in series [2], 7%; in series [5], 20%; in series [6], 7%; in [9], 33%; in series [11] it was 27%. In addition, the LD50 in [3] was determined as 80 mg/kg. The half-maximal inhibitory concentration (IC50) in series [4] worked out at 9.8 µM; in series [7], 0.72 µM; in series [8], 36 µM; in series [10] it was 4.8 µM.
In the case of `Nc1c2c(nc3cc(F)ccc13)CCCC2O` (stereo unspecified), the Animals was 33% in series [1]; 29% in [2]; 20% in series [5]; 20% in series [6]; 73% in series [9]; 40% in [11]. In addition, the 50% lethal dose (LD50) in series [3] came out at 40 mg/kg. Also, the 50% inhibitory concentration (IC50) in [8] is 0.292 µM; in series [10], above 10 µM.
Take `COc1ccc(CNc2c3c(nc4ccccc24)CCCC3O)cc1` (stereo unspecified): the LD50 in series [3] was above 80 mg/kg. Besides, the IC50 stood at 5 µM in series [4], 5.3 µM in series [7], 10.9 µM in series [8] and 25 µM in series [10].
In [3], `O=C(O)/C=C/C(=O)O.OC1CCCc2nc3ccccc3c(NCCCC(c3cccc(F)c3)c3cccc(F)c3)c21` (stereo unspecified) came in with an LD50 above 80 mg/kg. The same compound returned an IC50 in series [8] of 63 µM.
For `OC1CCCc2nc3cc(C(F)(F)F)ccc3c(NCc3ccccc3)c21` (stereo unspecified), in that order: above 80 mg/kg and 68.2 µM.
For the compound `Nc1c2c(nc3ccccc13)CCC2O` (stereo unspecified), the Animals in series [1] is 7%; in [2] it was 13%; in [5], 0%; in [6], 0%; in series [9], 13%; in series [11], 7%. The same compound showed an LD50 in series [3] above 80 mg/kg. In addition, in [8], half-maximal inhibition (IC50) required 5.97 µM.
In the case of `CN(C)CCNc1c2c(nc3ccccc13)CCCC2O` (stereo unspecified), in series [3], the LD50 was above 80 mg/kg. For the same compound, the half-inhibitory concentration (IC50) in series [8] turned out to be 7.68 µM.
For `OC1CCCc2nc3ccccc3c(NCc3cccc(Cl)c3)c21` (stereo unspecified) the same measures were above 80 mg/kg and 13.3 µM.
For `O=C(O)/C=C/C(=O)O.OC1CCCc2nc3ccccc3c(NCc3c(F)c(F)c(F)c(F)c3F)c21` (stereo unspecified), the Animals was 0% in [1]; 7% in series [2]; 7% in [5]; 13% in [6]; 7% in [9]; 20% in [11]. In addition, in series [3], the LD50 was above 80 mg/kg. Further, the IC50 came to 12.6 µM in [8] and 11 µM in [10].
In turn, `OC1CCCc2nc3ccccc3c(NCc3ccc(Cl)cc3)c21` (stereo unspecified) registered an LD50 in series [3] above 80 mg/kg. The IC50 in [4] stood at 5.7 µM; in series [7], 9.8 µM; in [8] it was 27.2 µM; in [10], 1.1 µM.
For `Cc1ccc(CNc2c3c(nc4ccccc24)CCCC3O)cc1` (stereo unspecified) the same measures were above 80 mg/kg, 8 µM, 2.2 µM, 21 µM and 1.1 µM.
On to `OC1CCCc2nc3ccccc3c(NCCCOc3ccccc3)c21` (stereo unspecified), for which the Animals in series [1] amounted to 7%; in [2], 0%; in series [5], 0%; in series [6], 13%; in series [9], 0%. The same compound registered an LD50 in [3] above 80 mg/kg. This compound came in with an IC50 in [8] of 3.98 µM.
On to `O=C(O)/C=C/C(=O)O.OC1CCCc2nc3ccccc3c(NCc3cccs3)c21` (stereo unspecified), for which the 50% lethal dose (LD50) in series [3] was above 80 mg/kg. Further, the half-maximal inhibitory concentration (IC50) in [4] was determined as 20 µM; in [7] it was 2.4 µM; in series [8], 15.3 µM; in series [10], 0.29 µM.
`COc1ccc2c(N)c3c(nc2c1)CCCC3O` (stereo unspecified) had a 50% lethal dose (LD50) in series [3] above 80 mg/kg. In series [8], this compound displayed an IC50 of 2 µM.
For `OC1CCCc2nc3ccccc3c(NCCCC(c3ccc(F)cc3)c3ccc(F)cc3)c21` (stereo unspecified) the same measures were above 80 mg/kg and 87.8 µM.

Values taken from ChEMBL document CHEMBL1124555, “9-Amino-1,2,3,4-tetrahydroacridin-1-ols: synthesis and evaluation as potential Alzheimer's disease therapeutics” (J Med Chem, 1989).
